Like-named read-outs stand apart in the source and are kept apart here.
Columns and labels:
[1] = system: NIH 3T3 mouse fibroblast cells; test: Mitogen-induced cell proliferation; type: cell-based; conditions: for inhibition at 10 µM: NIH3T3, read-out: Mitogen-induced cell proliferation % Inhibition
Text: Other cell lines, e.g., cancer cells, endothelial cells and fibroblasts, as well as many others, may be used in the cell proliferation assay. Selection of a particular cell line will depend in part on the desired application, and is well within the capabilities of an ordinarily skilled artisan.

[2] = molecular target: T1, red cell calcium-activated potassium transport (Homo sapiens, UniProt O15554); test: Red cell Ca2+-activated 86Rb influx inhibition after oral Clotrimazole; type: in vivo; conditions: for Ca2+-activated 86Rb influx inhibition %: Subject A
T1 construct: endogenous in cells; host or cells: red cells of two normal human subjects
T1 sequence (O15554 whole entry): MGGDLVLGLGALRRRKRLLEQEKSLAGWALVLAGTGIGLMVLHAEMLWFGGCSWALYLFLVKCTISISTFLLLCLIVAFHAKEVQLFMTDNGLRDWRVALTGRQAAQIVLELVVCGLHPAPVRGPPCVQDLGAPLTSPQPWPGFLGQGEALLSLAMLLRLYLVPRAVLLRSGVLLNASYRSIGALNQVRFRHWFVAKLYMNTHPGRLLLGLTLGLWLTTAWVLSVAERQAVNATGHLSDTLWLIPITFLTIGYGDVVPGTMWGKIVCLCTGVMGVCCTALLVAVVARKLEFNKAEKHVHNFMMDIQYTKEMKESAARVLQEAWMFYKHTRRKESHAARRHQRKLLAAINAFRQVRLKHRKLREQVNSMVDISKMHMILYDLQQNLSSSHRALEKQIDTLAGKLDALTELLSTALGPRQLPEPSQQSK
Description: Two subjects, […] (A, 72 kg) and […] (D, 56 kg), ingested one 500 mg CLT tablet every twelve hours for six days, corresponding to a daily CLT dose of 14 and 18 mg/kg, respectively.

[3] = molecular target: T1, red cell calcium-activated potassium transport; test: as above; type: in vivo; conditions: Subject B
red cell Gardos channel = red cell Gardos channel (Homo sapiens, UniProt O15554); test: cell-based
red cell Gardos channel, sequence (O15554 whole entry): as above
Description: CLT and metabolite B (Compound 6) were incubated with a red cell suspension at 20% Hct.

Gardos channel = Gardos channel (Homo sapiens, UniProt O15554); type: binding
Gardos channel, sequence (O15554 whole entry): as above

[4] = system: MM-RU human melanoma cells; test: SCID mice inoculated with MM-RU human melanoma cells, lung metastases; type: in vivo; conditions: 120 mg/Kg subcutaneous daily for 10 weeks
Description: Mice with severe combined immunodeficiency disease (SCID) were inoculated via the lateral tail vein with approximately 2.5×10^6 MM-RU human melanoma cells, a cell line that produces metastases only in the lungs (Byers et al., 1993, Melanoma Res. 3:247-253). Starting on the day of inoculation, subcutaneous injections of either vehicle (control group, n=9) or CLT (120 mg/Kg; treatment group, n=10) was administered daily for a period of 10 weeks. At the end of the 10 week treatment period, the mice were sacrificed and examined for metastases.

[5] = system: hepatic microsomal cytochrome P450; conditions: rats; Matsuura et al., 1991; cited from earlier work
[6] = system: Human melanoma cells (MM-RU); test: [3H]thymidine uptake in MM-RU cells; type: cell-based; conditions: 10 μM
Description: (§1) Human melanoma cells (MM-RU) and colon adenocarcinoma cells (HT29) were cultured in the presence and absence of 10 μM CLT metabolite B (Compound 6) as described in Benzaquen et al., 1995, Nature Medicine 1:534-540 and the level of DNA synthesis determined by measuring [^3H]thymidine uptake.

[7] = molecular target: Gardos channel of erythrocytes (Homo sapiens, UniProt O15554); test: cell-based
Gardos channel of erythrocytes, sequence (O15554 whole entry): as above

clinical = type: in vivo; conditions: human, plasma, read-out: Levels Plasma; for concentration at 6 day of CLT dosing: CLT day 6; for concentration at 10 day (wash-out): Wash-out day 10; for concentration at 13 day (wash-out): Wash-out day 13; for concentration at 20 day (wash-out): Wash-out day 20
[8] = system: colon adenocarcinoma cells (HT29); test: [3H]thymidine uptake in HT29 cells; type: cell-based, human; conditions: 10 μM
Description: as §1
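For Levels Plasma in this document: oral tablet given every 12 h for six days, about 14 mg/kg per day for this subject, with levels then followed in plasma.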

Clc1ccccc1C(c1ccccc1)(c1ccccc1)n1ccnc1 [Clotrimazole, reference compound]
inhibition at 10 µM [1]: 93%
Ca2+-activated 86Rb influx inhibition % ([2]; CLT day 3): 74 ± 5%
Ca2+-activated 86Rb influx inhibition % ([2]; CLT day 6): 73 ± 4%
Ca2+-activated 86Rb influx inhibition % ([2]; Wash-out day 6): 71 ± 7%
Ca2+-activated 86Rb influx inhibition % ([2]; Wash-out day 10): 75 ± 11%
Ca2+-activated 86Rb influx inhibition % ([2]; Wash-out day 13): 58 ± 9%
Ca2+-activated 86Rb influx inhibition % ([2]; Wash-out day 20): 0 ± 10%
persistence of inhibition of calcium-activated potassium transport after the drugs were discontinued ([2]; two subjects, oral CLT for six days): at least 7 days
Ca2+-activated 86Rb influx inhibition % ([3]; CLT day 3): 80 ± 28%
Ca2+-activated 86Rb influx inhibition % ([3]; CLT day 6): 83 ± 7%
Ca2+-activated 86Rb influx inhibition % ([3]; Wash-out day 8): 79 ± 21%
Ca2+-activated 86Rb influx inhibition % ([3]; Wash-out day 10): 82 ± 4%
Ca2+-activated 86Rb influx inhibition % ([3]; Wash-out day 13): 37 ± 30%
Ca2+-activated 86Rb influx inhibition % ([3]; Wash-out day 20): 0 ± 13%
concentration at which inhibition of K+ transport reached maximal levels (red cell Gardos channel): 5 µM
% control (red cell Gardos channel; 1 nM): 100.3%
flux (red cell Gardos channel; 1 nM): 1.155
inhibition at 0.001 µM (red cell Gardos channel; 1 nM): -0.3%
% control (red cell Gardos channel; 10 nM): 97.6%
flux (red cell Gardos channel; 10 nM): 1.124
inhibition at 0.01 µM (red cell Gardos channel; 10 nM): 2.4%
% control (red cell Gardos channel; 100 nM): 77.4%
flux (red cell Gardos channel; 100 nM): 0.892
inhibition at 0.1 µM (red cell Gardos channel; 100 nM): 22.6%
% control (red cell Gardos channel; 500 nM): 45.0%
flux (red cell Gardos channel; 500 nM): 0.518
inhibition at 0.5 µM (red cell Gardos channel; 500 nM): > 50%
% control (red cell Gardos channel; 1 μM): 21.5%
flux (red cell Gardos channel; 1 μM): 0.248
inhibition at 1 µM (red cell Gardos channel; 1 μM): 78.5%
% control (red cell Gardos channel; 5 μM): 3.3%
flux (red cell Gardos channel; 5 μM): 0.038
inhibition at 5 µM (red cell Gardos channel; 5 μM): 96.7%
% control (red cell Gardos channel; 10 μM): 3.7%
flux (red cell Gardos channel; 10 μM): 0.043
inhibition at 10 µM (red cell Gardos channel; 10 μM): 96.3%
125I-ChTX Binding (Gardos channel): 1.000
Displacement (%) (Gardos channel): 41.6%
number of microscopic metastases ([4]; SCID mice): 7±2
number of pleural metastases ([4]; SCID mice): 2±1
systemic metastatic disease or toxicity ([4]; SCID mice): did not show any evidence of systemic metastatic disease or toxicity
weight gain ([4]; SCID mice): gained weight in comparable amounts
treated animals free of macroscopic metastases ([4]; n=10): half
treated animals without evidence of microscopic metastases ([4]; n=10): two

OC(c1ccccc1)(c1ccccc1)c1ccccc1Cl [Compound 6, 2-chlorophenyl-diphenylmethanol]
induction of hepatic microsomal cytochrome P450 [5]: does not induce
inhibition at 10 µM [1]: 31%
IC50 ([1]; NIH3T3, read-out: Mitogen-induced cell proliferation IC50): 2100 nM
melting point: 92 to 93.5 °C
IC50 (red cell Gardos channel): 720 ± 190 nM
IC50 for inhibition of K+ transport relative to IC50 for displacement of 125I-ChTX (red cell Gardos channel): two to three fold lower
concentration at which inhibition of K+ transport reached maximal levels (red cell Gardos channel): 10 µM
% control (red cell Gardos channel; 1 nM): 125.3%
flux (red cell Gardos channel; 1 nM): 1.444
inhibition at 0.001 µM (red cell Gardos channel; 1 nM): -25.3%
% control (red cell Gardos channel; 10 nM): 96.8%
flux (red cell Gardos channel; 10 nM): 1.115
inhibition at 0.01 µM (red cell Gardos channel; 10 nM): 3.2%
% control (red cell Gardos channel; 100 nM): 82.6%
flux (red cell Gardos channel; 100 nM): 0.952
inhibition at 0.1 µM (red cell Gardos channel; 100 nM): 17.4%
% control (red cell Gardos channel; 500 nM): 62.2%
flux (red cell Gardos channel; 500 nM): 0.717
inhibition at 0.5 µM (red cell Gardos channel; 500 nM): 37.8%
% control (red cell Gardos channel; 1 μM): 37.9%
flux (red cell Gardos channel; 1 μM): 0.437
inhibition at 1 µM (red cell Gardos channel; 1 μM): > 50%
% control (red cell Gardos channel; 5 μM): 21.7%
flux (red cell Gardos channel; 5 μM): 0.25
inhibition at 5 µM (red cell Gardos channel; 5 μM): 78.3%
% control (red cell Gardos channel; 10 μM): 9.8%
flux (red cell Gardos channel; 10 μM): 0.113
inhibition at 10 µM (red cell Gardos channel; 10 μM): 90.2%
125I-ChTX Binding (Gardos channel; 1 nM, red cells): 1.403
125I-ChTX Binding (Gardos channel; 10 nM, red cells): 1.399
125I-ChTX Binding (Gardos channel; 100 nM, red cells): 1.239
Displacement (%) (Gardos channel; 100 nM, red cells): 6.0%
125I-ChTX Binding (Gardos channel; 500 nM, red cells): 1.134
Displacement (%) (Gardos channel; 500 nM, red cells): 21.6%
125I-ChTX Binding (Gardos channel; 1 μM, red cells): 1.327
125I-ChTX Binding (Gardos channel; 5 μM, red cells): 1.016
Displacement (%) (Gardos channel; 5 μM, red cells): 39.2%
125I-ChTX Binding (Gardos channel; 10 μM, red cells): 0.790
Displacement (%) (Gardos channel; 10 μM, red cells): 72.9%
Displacement of 125I-ChTX binding (in words) (Gardos channel; red cells): specifically displaces
inhibition of [3H]thymidine uptake versus controls [6]: about 60%
IC50 [7]: 961 nM
inhibition at 10 µM ([7]; read-out: Gardos Channel % Inhibition): 98%
concentration at 6 day of CLT dosing (clinical; oral, 500 mg, Subject A): 1100 nM
concentration at 6 day (wash-out) (clinical; oral, 500 mg, Subject A, Wash-out day 6): < 100 nM
concentration at 10 day (wash-out) (clinical; oral, 500 mg, Subject A): < 100 nM
concentration at 13 day (wash-out) (clinical; oral, 500 mg, Subject A): 0 nM
concentration at 20 day (wash-out) (clinical; oral, 500 mg, Subject A): 0 nM
concentration at 3 day of CLT dosing (clinical; oral, 500 mg, Subject B, CLT day 3): 800 nM
concentration at 6 day of CLT dosing (clinical; oral, 500 mg, Subject B): 1350 nM
concentration at 8 day (wash-out) (clinical; oral, 500 mg, Subject B, Wash-out day 8): < 100 nM
concentration at 10 day (wash-out) (clinical; oral, 500 mg, Subject B): < 100 nM
concentration at 13 day (wash-out) (clinical; oral, 500 mg, Subject B): 0 nM
concentration at 20 day (wash-out) (clinical; oral, 500 mg, Subject B): 0 nM
concentration at 3 day of CLT dosing (clinical; Subject A, CLT day 3, oral CLT 500 mg every twelve hours): 1100 nM
inhibition of [3H]thymidine uptake versus controls [8]: about 50%

Source: patent US7531573B2 (priority 1994, dated 2009)
